Reference: patent US20250282799A1, “SUBSTITUTED PYRIDO[4,3-d]PYRIMIDINES AS KRAS MODULATORS” (Alterome Therapeutics, Inc., priority 2023, published 2025)

Tested on: KRAS G12V dependent lung adenocarcinoma cell line, NCI-H441
Test: Cellular pERK (Thr202/Tyr204) FRET/HTRF assay
Assay type: cell-based
Conditions: Homo sapiens, NCI-H441, cellular pERK (Thr202/Tyr204) HTRF, NCI-H441 cells
In short: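 NCI-H441 cells (KRAS G12V) were seeded and grown overnight at 37 °C, 5% CO2, then treated with compound in DMSO for 1 hr. Lysates were probed with a Eu3+-cryptate/d2 antibody sandwich against pERK1/2 Thr202/Tyr204 and read by HTRF at 665 nm; IC50 from curve fitting.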

| Structure (SMILES) | IC50 [µM] |
| --- | --- |
| [2H]C([2H])(Oc1nc(N2CCCC[C@H]3[C@H](F)[C@H]32)c2cnc(-c3nc(N)cc4ccc(F)c(Cl)c34)c(F)c2n1)[C@@]12CCCN1C[C@H](F)C2 [Example 153, 8-chloro-7-fluoro-1-(8-fluoro-4-((1S,7R,8S)-8-fluoro-2-azabicyclo[5.1.0]octan-2-yl)-2-(((2R,7aS)-2-fluorotetrahydro-1H-pyrrolizin-7a(5H)-yl)methoxy-d2)pyrido[4,3-d]pyrimidin-7-yl)isoquinolin-3-amine] | 0.05 to 0.5 |
| [2H]C([2H])(Oc1nc(N2CCOC[C@H]3[C@H](F)[C@H]32)c2cnc(-c3nc(N)cc4ccc(F)c(C#C)c34)c(F)c2n1)[C@@]12CCCN1C[C@H](F)C2 [Example 154] | < 0.05 |
| C#Cc1c(F)ccc2cc(N)cc(-c3ncc4c(N5CCOC[C@H]6[C@H](F)[C@H]65)nc(OC[C@@]56CCCN5C/C(=C\F)C6)nc4c3F)c12 [Example 155, 5-Ethynyl-6-fluoro-4-(8-fluoro-4-((1S,7S,8S)-8-fluoro-5-oxa-2-azabicyclo[5.1.0]octan-2-yl)-2-(((S,Z)-2-(fluoromethylene)tetrahydro-1H-pyrrolizin-7a(5H)-yl)methoxy)pyrido[4,3-d]pyrimidin-7-yl)naphthalen-2-amine] | < 0.05 |
| [2H]C([2H])(F)Oc1c(F)ccc2cccc(-c3ncc4c(N5CCOC[C@H]6[C@H](F)[C@H]65)nc(OC[C@@]56CCCN5C/C(=C/F)C6)nc4c3F)c12 [Example 156, (1S,7S,8S)-8-fluoro-2-(8-fluoro-7-(7-fluoro-8-(fluoromethoxy-d2)naphthalen-1-yl)-2-(((S,E)-2-(fluoromethylene)tetrahydro-1H-pyrrolizin-7a(5H)-yl)methoxy)pyrido[4,3-d]pyrimidin-4-yl)-5-oxa-2-azabicyclo[5.1.0]octane] | < 0.05 |
| [2H]C([2H])(F)Oc1c(F)ccc2cccc(-c3ncc4c(N5CCOC[C@H]6[C@H](F)[C@H]65)nc(OC[C@@]56CCCN5C/C(=C\F)C6)nc4c3F)c12 [Example 157, (1S,7S,8S)-8-fluoro-2-(8-fluoro-7-(7-fluoro-8-(fluoromethoxy-d2)naphthalen-1-yl)-2-(((S,Z)-2-(fluoromethylene)tetrahydro-1H-pyrrolizin-7a(5H)-yl)methoxy)pyrido[4,3-d]pyrimidin-4-yl)-5-oxa-2-azabicyclo[5.1.0]octane] | < 0.05 |
| C#Cc1c(F)ccc2cc(N)cc(-c3ncc4c(N5CCOC[C@H]6[C@H](F)[C@H]65)nc(OC[C@@]56CCCN5CC(=C)C6)nc4c3F)c12 [Example 158, 5-Ethynyl-6-fluoro-4-(8-fluoro-4-((1S,7S,8S)-8-fluoro-5-oxa-2-azabicyclo[5.1.0]octan-2-yl)-2-(((S)-2-methylenetetrahydro-1H-pyrrolizin-7a(5H)-yl)methoxy)pyrido[4,3-d]pyrimidin-7-yl)naphthalen-2-amine] | < 0.05 |
| [2H]C([2H])(Oc1nc(N2CCOC[C@H]3[C@H](F)[C@H]32)c2cc(Cl)c(-c3nc(N)cc(C)c3C(F)(F)F)c(F)c2n1)[C@@]12CCCN1C[C@H](F)C2 [Example 159, 6-(6-Chloro-8-fluoro-4-((1S,7S,8S)-8-fluoro-5-oxa-2-azabicyclo[5.1.0]octan-2-yl)-2-(((2R,7aS)-2-fluorotetrahydro-1H-pyrrolizin-7a(5H)-yl)methoxy-d2)quinazolin-7-yl)-4-methyl-5-(trifluoromethyl)pyridin-2-amine] | < 0.05 |
| [2H]C([2H])(Oc1nc(N2CCOC[C@@H]3[C@@H](F)[C@@H]32)c2cc(Cl)c(-c3nc(N)cc(C)c3C(F)(F)F)c(F)c2n1)[C@@]12CCCN1C[C@H](F)C2 [Example 160, 6-(6-chloro-8-fluoro-4-((1R,7R,8R)-8-fluoro-5-oxa-2-azabicyclo[5.1.0]octan-2-yl)-2-(((2R,7aS)-2-fluorotetrahydro-1H-pyrrolizin-7a(5H)-yl)methoxy-d2)quinazolin-7-yl)-4-methyl-5-(trifluoromethyl)pyridin-2-amine] | 0.05 to 0.5 |
| C#Cc1c(F)ccc2cc(N)cc(-c3ncc4c(N5CCOC[C@H]6[C@H](F)[C@H]65)nc(OC[C@@]56CCCN5C/C(=C/F)C6)nc4c3F)c12 [Example 161, 5-Ethynyl-6-fluoro-4-(8-fluoro-4-((1S,7S,8S)-8-fluoro-5-oxa-2-azabicyclo[5.1.0]octan-2-yl)-2-(((S,E)-2-(fluoromethylene)tetrahydro-1H-pyrrolizin-7a(5H)-yl)methoxy)pyrido[4,3-d]pyrimidin-7-yl)naphthalen-2-amine] | < 0.05 |
| [2H]C([2H])(F)Oc1c(F)c(F)cc2cc(N)cc(-c3ncc4c(N5CCOC[C@H]6[C@H](F)[C@H]65)nc(OC[C@@]56CCCN5C/C(=C\F)C6)nc4c3F)c12 [Example 162, 6,7-Difluoro-4-(8-fluoro-4-((1S,7S,8S)-8-fluoro-5-oxa-2-azabicyclo[5.1.0]octan-2-yl)-2-(((S,Z)-2-(fluoromethylene)tetrahydro-1H-pyrrolizin-7a(5H)-yl)methoxy)pyrido[4,3-d]pyrimidin-7-yl)-5-(fluoromethoxy-d2)naphthalen-2-amine] | < 0.05 |
| [2H]C([2H])(Oc1nc(N2CCOC[C@H]3[C@H](F)[C@H]32)c2cc(F)c(-c3cc(N)cc(C4CC4)c3C(F)(F)F)c(F)c2n1)[C@@]12CCCN1C[C@H](F)C2 [Example 163, 3-cyclopropyl-5-(6,8-difluoro-4-((1S,7S,8S)-8-fluoro-5-oxa-2-azabicyclo[5.1.0]octan-2-yl)-2-(((2R,7aS)-2-fluorotetrahydro-1H-pyrrolizin-7a(5H)-yl)methoxy-d2)quinazolin-7-yl)-4-(trifluoromethyl)aniline] | 0.5 to 10 |
| [2H]C([2H])(Oc1nc(N2CCOC[C@@H]3[C@@H](F)[C@@H]32)c2cc(F)c(-c3cc(N)cc(C4CC4)c3C(F)(F)F)c(F)c2n1)[C@@]12CCCN1C[C@H](F)C2 [Example 164, 3-cyclopropyl-5-(6,8-difluoro-4-((1R,7R,8R)-8-fluoro-5-oxa-2-azabicyclo[5.1.0]octan-2-yl)-2-(((2R,7aS)-2-fluorotetrahydro-1H-pyrrolizin-7a(5H)-yl)methoxy-d2)quinazolin-7-yl)-4-(trifluoromethyl)aniline] | 0.5 to 10 |

More lines, now with the values ahead:

| IC50 [µM] | Structure (SMILES) |
| --- | --- |
| 0.05 to 0.5 | [2H]C([2H])(Oc1nc(N2CCOC[C@H]3[C@H](F)[C@H]32)c2cnc(-c3cc(N)cc(C4CC4)c3C(F)(F)F)c(F)c2n1)[C@@]12CCCN1C[C@H](F)C2 [Example 165, 3-cyclopropyl-5-(8-fluoro-4-((1S,7S,8S)-8-fluoro-5-oxa-2-azabicyclo[5.1.0]octan-2-yl)-2-(((2R,7aS)-2-fluorotetrahydro-1H-pyrrolizin-7a(5H)-yl)methoxy-d2)pyrido[4,3-d]pyrimidin-7-yl)-4-(trifluoromethyl)aniline] |
| < 0.05 | C#Cc1c(F)ccc2cccc(-c3ncc4c(N5CCOC[C@H]6[C@H](F)[C@H]65)nc(OC[C@]56CC(=C)CN5CCC65CC5)nc4c3F)c12 [Example 166, (1S,7S,8S)-2-(7-(8-Ethynyl-7-fluoronaphthalen-1-yl)-8-fluoro-2-(((R)-6′-methylenetetrahydrospiro[cyclopropane-1,1′-pyrrolizin]-7a′(5′H)-yl)methoxy)pyrido[4,3-d]pyrimidin-4-yl)-8-fluoro-5-oxa-2-azabicyclo[5.1.0]octane] |
| < 0.05 | [2H]C([2H])(Oc1nc(N2CCOC[C@H]3[C@H](F)[C@H]32)c2cnc(-c3cc(N)c(F)c(C)c3C(F)(F)F)c(F)c2n1)[C@@]12CCCN1C[C@H](F)C2 [Example 167, 2-Fluoro-5-(8-fluoro-4-((1S,7S,8S)-8-fluoro-5-oxa-2-azabicyclo[5.1.0]octan-2-yl)-2-(((2R,7aS)-2-fluorotetrahydro-1H-pyrrolizin-7a(5H)-yl)methoxy-d2)pyrido[4,3-d]pyrimidin-7-yl)-3-methyl-4-(trifluoromethyl) aniline] |
| 0.5 to 10 | [2H]C([2H])(Oc1nc(N2CCOC[C@H]3[C@H](F)[C@H]32)c2cnc(-c3cc(N)cc(C)c3C(F)(F)F)c(F)c2n1)[C@@]12CCCN1C[C@H](F)C2 [Example 168, 3-(8-fluoro-4-((1S,7S,8S)-8-fluoro-5-oxa-2-azabicyclo[5.1.0]octan-2-yl)-2-(((2R,7aS)-2-fluorotetrahydro-1H-pyrrolizin-7a(5H)-yl)methoxy-d2)pyrido[4,3-d]pyrimidin-7-yl)-5-methyl-4-(trifluoromethyl)aniline] |
| 0.5 to 10 | [2H]C([2H])(Oc1nc(N2CCOC[C@H]3[C@H](F)[C@H]32)c2cc(F)c(-c3cc(N)cc(C)c3C(F)(F)F)c(F)c2n1)[C@@]12CCCN1C[C@H](F)C2 [Example 169, 3-(6,8-difluoro-4-((1S,7S,8S)-8-fluoro-5-oxa-2-azabicyclo[5.1.0]octan-2-yl)-2-(((2R,7aS)-2-fluorotetrahydro-1H-pyrrolizin-7a(5H)-yl)methoxy-d2)quinazolin-7-yl)-5-methyl-4-(trifluoromethyl)aniline] |
| < 0.05 | C#Cc1c(F)ccc2cc(N)cc(-c3ncc4c(N5CCOC[C@H]6[C@H](F)[C@H]65)nc(OC[C@]56CC(=C)CN5CCC65CC5)nc4c3F)c12 [Example 171, 5-Ethynyl-6-fluoro-4-(8-fluoro-4-((1S,7S,8S)-8-fluoro-5-oxa-2-azabicyclo[5.1.0]octan-2-yl)-2-(((R)-6′-methylenetetrahydrospiro[cyclopropane-1,1′-pyrrolizin]-7a′(5′H)-yl)methoxy)pyrido[4,3-d]pyrimidin-7-yl)naphthalen-2-amine] |
| < 0.05 | [2H]C([2H])([2H])Oc1c(F)cc(F)c2cc(N)cc(-c3ncc4c(N5CCOC[C@H]6[C@H](F)[C@H]65)nc(OC[C@@]56CCCN5C/C(=C\F)C6)nc4c3F)c12 [Example 172, 6,8-difluoro-4-(8-fluoro-4-((1S,7S,8S)-8-fluoro-5-oxa-2-azabicyclo[5.1.0]octan-2-yl)-2-(((S,Z)-2-(fluoromethylene)tetrahydro-1H-pyrrolizin-7a(5H)-yl)methoxy)pyrido[4,3-d]pyrimidin-7-yl)-5-(methoxy-d3)naphthalen-2-amine] |
